Literature values, collected in patent publication US10413512B2, “Nicotine-containing granulate” (priority 2008, dated 2019).

Columns and labels:
[1] = base form
[2] = oral administration
[3] = in vivo

CN1CCC[C@H]1c1cccnc1 [Nicotine, (S)-3-(1-Methyl-2-pyrrolidinyl)pyridine]
miscibility with water [1]: miscible with water
oral bioavailability [2]: about 30%
half life in the body [3]: around two
